From patent US20200079757A1, “COMPOUNDS FOR THE TREATMENT OF RESPIRATORY DISEASES” (THE UNIVERSITY OF MELBOURNE, priority 2017, published 2020)

How the values were obtained:
[1] = system: TNF-stimulated BEAS-2B cells; experiment: TNF-α-induced IL-8 and CSF-2 (GM-CSF) mRNA and supernatant protein in BEAS-2B cells (RT-qPCR, ELISA); type: cell-based; settings: 1-10 μM 30 min prior to TNF-α 10 ng/ml 24 h, maximal at lowest concentration
Procedure: The primary assay for the activity of the novel CK1δ/ε inhibitors is the modulation of gene expression in the airway epithelial cell line, the BEAS-2B cells. The assay is conducted under several conditions. Generally, TGF-β or TNF-α is used to elicit fibrogenic or inflammatory genes, respectively. The agents are added at a concentration of 10 μM, or at the indicated concentrations for a period of 30 min prior to the addition of TGF-β/TNF-α which are incubated for a further 20 hours before the addition, in some experiments of the glucocorticoid, dexamethasone (Dex, 30 nM) for the final 4 hours of the experiment, prior to harvest of cellular RNA to measure by RT-qPCR the levels of mRNA of marker genes for inflammation and fibrogenesis. The inhaled corticosteroid (ICS), budesonide is also used in some experiments. Furthermore, the supernatants are harvested at the end of the incubation periods in selected experiments to measure the levels of CSF-2 or IL-8 by ELISA as described in (Tran et al. (2005) British Journal of Pharmacology, 145, 123-131). […] The threshold cycle (CT) values determined for target genes were normalized against those obtained for 18S ribosomal RNA (18S rRNA), which was included as internal control. […] RNA was extracted and measured by RT-qPCR. Pro-inflammatory cytokines in the supernatants were measured by ELISA. […]

TGFβ-activated A549 = TGFβ-activated A549 gene expression (modulation of mRNA level, RT-qPCR); type: cell-based; settings: for CTGF expression / PAI-1 expression / TGF-β-induced suppression of E-cadherin: A549, 0.1-10 μM prior to TGF-β (100 pM) 24 hr; for IC50: Homo sapiens, read-out: -Log IC50 ± SEM (modulation of mRNA level), N-Cadherin induction (converted)
[2] = system: Bleomycin Model of Pulmonary Fibrosis; experiment: Bleomycin model of pulmonary fibrosis: BAL protein, BAL cells, lung gene expression; type: in vivo, mouse; settings: female C57BI/6 mice; for bleomycin-induced BAL cell number / bleomycin-induced BAL protein: day −1 to 3
Procedure: All animal experiments were carried out in accordance with ethical guidelines from the University of Melbourne Animal Ethics Committee (AEEC #1513736.1). Six- to 8-week old 20-25 g C57BI/6 mice (ARC, Perth, Australia) received treatment with 35 μL of saline or bleomycin (105 mU per mouse) on day 0 through intranasal administration, as previously described (Langenbach et al., (2007). Can J Physiol Pharmacol, 85, 727-738). Acute and chronic bleomycin mouse models were used to assess the effect of SS9-010 on pulmonary fibrosis in vivo. SS9-010 was administered systemically through intraperitoneal injection or locally to the lungs through inhalation of an aerosol generated using an oxygen concentrator connected to a hudson nebuliser operating at 5 L/min for 15 minutes. […] Mice were allowed food and water ad libitum for the duration of all studies. At the end of each study, bronchoalveolar lavage (BAL) was performed from which leukocyte cell types were enumerated and acelluar protein content was determined as previously described (Langenbach, et al., 2007), lungs were dissected and snap frozen. Gene expression were determined from pulverised frozen lung tissue. Total protein content in acellular BAL fluid was assessed using the BioRad protein assay method. BAL cells in BAL fluid were stained with Erythrosin B (EB) and counted manually with the aid of a hemocytometer. Total BAL cell number was calculated by accounting for the return volume of BAL fluid. The effects of inhaled SS9-010 on bleomycin-induced BAL protein leakage, BAL cell recruitment, lung weight, as well as lung fibrogenic gene expression in mouse lungs are shown in FIG. 9. Female C57BI/6 mice received a transnasal dose of bleomycin or saline on day 0. SS9-010 was administered day −1 to day 3 by daily inhalation of aerosol generated by nebulizing from a concentration of 1 mg/mL for a period of 15 min once daily. Bronchoalveolar lavage (BAL) protein and BAL cell number were assessed. Lung fibrogenic gene expression was also assessed on day 3. Data are presented as mean±SEM (n=6). […] The effects of intraperitoneal injection of SS9-010 on bleomycin-induced BAL protein leakage, BAL cell recruitment, and lung fibrogenic gene expression in mouse lungs are shown in FIG. 10. Female C57BI/6 mice were […] administered bleomycin or saline on day 0. SS9-010 (3 or 10 mg/kg/day, ip) was administered from day −1 to 3. […] Lung fibrogenic gene expression was also assessed on day 3. Data are presented as mean±SEM (n=4 sal, n=5 other groups). Systemic SS9-010 (3 or 10 mg/kg/day, ip) had no effect on BAL protein or BAL cell number. Induction of IL-6 was reduced by SS9-010 treatment, whereas arginase-1 was not.

[3] = system: ovalbumin (OVA)-sensitized BALB/c mice; experiment: Airway hyper-responsiveness to methacholine in acute ovalbumin-induced asthma model; type: in vivo, mouse; settings: inhaled, estimated deposited dose 1 μg, day 21 to 28
[4] = A549, agent 0.1-10 μM before TGF-β (100 pM) 24 hr
[5] = inhaled aerosol 1 mg/mL 15 min once daily

| SMILES | TNF-α-induced IL-8 expression and immunoreactive IL-8 in supernatant [1] | CTGF expression (TGFβ-activated A549) | PAI-1 expression (TGFβ-activated A549) | TGF-β-induced suppression of E-cadherin (TGFβ-activated A549) | -Log IC50 ± SEM (modulation of mRNA level), Vimentin induction (TGFβ-activated A549; [4]) | IC50 (TGFβ-activated A549; [4]) [µM] | induction of IL-6 (lung gene expression) ([2]; 3 or 10 mg/kg/day ip, day 3) | bleomycin-induced BAL cell number ([2]; 3 or 10 mg/kg/day ip) | bleomycin-induced BAL protein ([2]; 3 or 10 mg/kg/day ip) | bleomycin-induced BAL cell number [2, 5] | bleomycin-induced BAL protein [2, 5] | lung fibrogenic gene expression ([2]; inhaled aerosol 1 mg/mL 15 min once daily, day −1 to 3, assessed day 3) | OVA-induced increase in central airway resistance (Rn) to methacholine [3] | OVA-induced increase in elastance to methacholine [3] | compliance changes, OVA/SS9-010 compared to OVA alone [3] |
| --- | --- | --- | --- | --- | --- | --- | --- | --- | --- | --- | --- | --- | --- | --- | --- |
| Cl.Nc1nccc(-c2c(-c3ccc(F)cc3)ncn2C2CCCCC2)n1 [PF670462, 4-(1-Cyclohexyl-4-(4-fluorophenyl)-1H-imidazol-5-yl)pyrimidin-2-amine hydrochloride, reference compound] | active inhibitors | concentration-dependently inhibited | concentration-dependently inhibited | restored | Inactive | 4.47 | – | – | – | – | – | – | – | – | – |
| CNc1nccc(-c2c(-c3ccc(F)cc3)ncn2C2CCCCC2)n1 [SS9-010, 4-(1-Cyclohexyl-4-(4-fluorophenyl)-1H-imidazol-5-yl)-N-methylpyrimidin-2-amine] | active inhibitors | concentration-dependently inhibited | concentration-dependently inhibited | restored | – | 2 | reduced | no effect | no effect | modest suppression | showed an effect | showed an effect | attenuated | attenuated | No significant difference |
